# Laboratory results published in PubChem BioAssay (NCI).
# Several values for one entry are separate records, joined by “and”; a condition that tells them apart may be missing. Equal entries are not always repeated.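 Dose response: 5 concentrations. Exposure: 48 h. Format: 96-well plates. Endpoint: linear interpolation; highest concentration if not reached. At the GI50, growth is halved. TGI denotes the concentration required for complete inhibition of growth.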
# Legend:
# Experiment in all cases: NCI tumour cell line growth inhibition, 48 h
# DMS 114 small cell lung = test system: DMS 114 small cell lung
# DMS 273 small cell lung = test system: DMS 273 small cell lung
# HOP-18 NSCLC = test system: HOP-18 NSCLC
# KM20L2 colon = test system: KM20L2 colon
# LXFL 529 NSCLC = test system: LXFL 529 NSCLC
# M19-MEL melanoma = test system: M19-MEL melanoma
# XF 498 CNS = test system: XF 498 CNS
# RXF-631 renal = test system: RXF-631 renal
# MDA-N = test system: MDA-N
# P388 leukemia = test system: P388 leukemia
# SN12K1 renal = test system: SN12K1 renal
Compound,TGI (DMS 114 small cell lung),TGI (DMS 273 small cell lung),TGI (HOP-18 NSCLC),TGI (KM20L2 colon),TGI (LXFL 529 NSCLC),TGI (M19-MEL melanoma),TGI (XF 498 CNS),TGI (RXF-631 renal),TGI (MDA-N),GI50 (DMS 273 small cell lung),GI50 (HOP-18 NSCLC),GI50 (MDA-N),TGI (P388 leukemia),TGI (SN12K1 renal),GI50 (XF 498 CNS)
COc1cc(OC)c2ssc3c(OC)cc(OC)c4ssc1c2-c43,> 100 µM,> 100 µM,> 100 µM,> 100 µM,> 100 µM,> 100 µM,> 100 µM,,,,,,,,
CC(C)N(C(=O)C1(C)CC1)C(C)C,> 100 µM,> 100 µM,> 100 µM,> 100 µM,> 100 µM,> 100 µM,> 100 µM,> 100 µM,,,,,,,
COc1ccc2c(c1O)C(=O)C(CCC(=O)O)CC2 (configuration not stated),> 100 µM,> 100 µM,> 100 µM,> 100 µM,> 100 µM,> 100 µM,> 100 µM,> 100 µM,,,,,,,
NC(=O)/C(=C\c1ccncc1)c1cccc2ccccc12,,,,,,,,,> 100 µM,,,,,,
COc1cc2c(c(OC)c1O)-c1ccc(OC)c(=O)cc1[C@@H](NC(=O)C(F)(F)F)CC2,,,,,,,,,0.0628 µM,,,,,,
CCSC(SCC)c1cc2c(cc1Br)OCO2,50.4 µM,20.1 µM,,64.7 µM,,> 100 µM,59.4 µM,73.7 µM,,,,,,,
C=CCCOC(=O)CO[N+](=O)[O-],> 100 µM,> 100 µM,,> 100 µM,> 100 µM,> 100 µM,> 100 µM,,,,,,,,
COc1c2ccoc2cc2oc(=O)ccc12,,,,,,,,,> 100 µM,,,,,,
C=CCCCn1ccc2ccccc21,> 100 µM,,> 100 µM,> 100 µM,> 100 µM,> 100 µM,> 100 µM,> 100 µM,,,,,,,
CC(=O)[O-].CC(=O)[O-].O=C(N/N=C/c1cc(Cl)cc(Cl)c1O)c1ccncc1.[Ni+2],,,,> 100 µM,,,,,,,,,,,
COc1ccc(/C=C/C(=O)C(C)(C)CN2CCCCC2)cc1,29.6 µM,41.6 µM,60.4 µM,> 100 µM,28.9 µM,33.8 µM,30.1 µM,,,,,,,,
Cc1c(-c2ccccc2)c(=O)oc2ccc(Cl)cc12,> 100 µM,> 100 µM,> 100 µM,,> 100 µM,> 100 µM,,,,,,,,,
CCCCCCCCCCCCCCCCOCC(CN(C)CCN(C)C)OCCCCCCCCCCCCCCCC (configuration not stated),> 100 µM,> 100 µM,> 100 µM,> 100 µM,> 100 µM,> 100 µM,,> 100 µM,,,,,,,
C[C@H](N)C(=O)N[C@@H]1[C@H]2C(=C(O)C[C@@H](O)[C@@H]2O)C(=O)O[C@]1(C)C(Cl)Cl,0.98 µM and 1.28 µM,1.57 µM and 1.44 µM,4.39 µM and 2.76 µM,2.73 µM and 3.23 µM,1.53 µM,1.22 µM and 2.62 µM,1.05 µM and 0.31 µM,1.93 µM,,0.279 µM,0.375 µM,0.438 µM,0.453 µM,1.58 µM,0.211 µM
COC(=O)NC1(NC(=O)OC)NC(=O)c2cc(OC)c(OC)cc2N1,,,,,,,,,16 µM,,,,,,
O=c1[nH]cc(/C=N\Nc2ccccc2)c(=O)[nH]1,,,,,,,,,> 100 µM,,,,,,
COc1cc(Br)c(CC2(C#N)c3ccccc3C3C(N2C(=O)c2ccccc2)C3(Cl)Cl)cc1OC (configuration not stated),> 65.5 µM,> 65.5 µM,> 65.5 µM,> 65.5 µM,> 65.5 µM,,> 65.5 µM,,,,,,,,
CCOC(=O)Cc1nc2ccccc2s1,,55.4 µM,74.3 µM,69.1 µM,29.4 µM,40.6 µM,28 µM,33.8 µM,,,,,,,
O=C(O)C1=C(C(=O)Nc2ccccc2)C2C=CC1C2 (configuration not stated),> 100 µM,> 100 µM,> 100 µM,> 100 µM,> 100 µM,> 100 µM,> 100 µM,,,,,,,,
C#Cc1c(C)c(/C=C/C(C)=C/C=C/C(C)=C/C(=O)OC)n(C)c1C,> 100 µM,,,> 100 µM,> 100 µM,> 100 µM,> 100 µM,> 100 µM,,,,,,,
O=C1OC(c2ccccc2)=N/C1=C\c1ccc2ccccc2c1,> 100 µM,,> 100 µM,> 100 µM,,> 100 µM,> 100 µM,,,,,,,,
